Measured values reported in patent US7625894B2, “Pyrrolo[2,3-d]Pyrimidines as Protein Tyrosine Kinase Inhibitors” (Novartis AG, priority 2004, dated 2009).

Legend:
Bcr-Abl = target: T1, Bcr-Abl (Homo sapiens, UniProt P00519); assay: Test for activity against Bcr-Abl (phosphorylation ELISA in 32D-bcr/abl cells); type: cell-based, murine; details: 32D cells transfected with p210 Bcr-Abl; ELISA of Bcr-Abl phosphorylation; read-out: bcrabl32DcEL/ Average<32Dp210IC50 [umol l−1]>
T1 construct: host or cells: murine myeloid progenitor cell line 32Dcl3 (32D-bcr/abl); the other entry of the earlier key: BCR (P11274, Breakpoint cluster region protein)
T1 sequence (P00519 28-1130 limits assumed): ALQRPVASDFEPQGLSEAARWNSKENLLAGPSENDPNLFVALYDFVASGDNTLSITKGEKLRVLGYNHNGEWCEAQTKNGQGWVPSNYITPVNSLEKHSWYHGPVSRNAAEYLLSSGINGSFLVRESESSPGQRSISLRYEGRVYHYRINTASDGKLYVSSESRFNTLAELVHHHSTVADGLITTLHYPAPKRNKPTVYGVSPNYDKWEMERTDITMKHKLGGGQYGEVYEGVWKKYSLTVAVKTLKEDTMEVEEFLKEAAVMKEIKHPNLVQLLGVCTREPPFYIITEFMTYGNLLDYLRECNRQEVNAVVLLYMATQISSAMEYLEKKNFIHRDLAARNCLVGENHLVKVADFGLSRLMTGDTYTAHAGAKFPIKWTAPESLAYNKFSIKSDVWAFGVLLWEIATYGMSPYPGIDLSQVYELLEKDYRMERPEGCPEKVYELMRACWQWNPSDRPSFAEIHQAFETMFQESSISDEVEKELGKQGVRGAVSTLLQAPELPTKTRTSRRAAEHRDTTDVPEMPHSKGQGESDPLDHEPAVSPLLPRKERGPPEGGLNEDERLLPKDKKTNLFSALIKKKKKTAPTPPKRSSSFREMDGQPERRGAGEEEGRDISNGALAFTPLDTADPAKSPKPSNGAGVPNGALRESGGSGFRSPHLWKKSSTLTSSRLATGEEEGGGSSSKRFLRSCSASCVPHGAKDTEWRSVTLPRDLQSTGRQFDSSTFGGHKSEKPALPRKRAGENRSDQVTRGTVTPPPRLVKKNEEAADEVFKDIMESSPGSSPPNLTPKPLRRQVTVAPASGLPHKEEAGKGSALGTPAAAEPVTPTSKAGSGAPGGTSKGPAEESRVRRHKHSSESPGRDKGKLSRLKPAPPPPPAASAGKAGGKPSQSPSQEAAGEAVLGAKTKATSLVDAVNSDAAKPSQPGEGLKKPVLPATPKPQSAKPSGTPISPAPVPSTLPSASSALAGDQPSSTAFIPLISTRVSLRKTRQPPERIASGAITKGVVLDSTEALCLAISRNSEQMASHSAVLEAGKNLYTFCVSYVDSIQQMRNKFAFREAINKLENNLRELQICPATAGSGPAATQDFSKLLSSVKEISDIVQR
Method: Test for activity against Bcr-Abl. The murine myeloid progenitor cell line 32Dcl3 transfected with the p210 Bcr-Abl expression vector pGDp210Bcr/Abl (32D-bcr/abl) was obtained from J. Griffin (Dana Faber Cancer Institute, Boston, Mass., USA). The cells express the fusion Bcr-Abl protein with a constitutively active Abl kinase and proliferate growth factor independent. The cells are expanded in RPMI 1640 (AMIMED), 10% fetal calf serum, 2 mM glutamine (Gibco) (“complete medium”), and a working stock is prepared by freezing aliquots of 2×10^6 cells per vial in freezing medium (95% FCS, 5% DMSO (SIGMA)). After thawing, the cells are used during maximally 10-12 passages for the experiments.
For cellular assays, compounds are dissolved in DMSO and diluted with complete medium to yield a starting concentration of 10 μM followed by preparation of serial 3-fold dilutions in complete medium. 200,000 32D-Bcr/Abl cells in 50 μL complete medium are seeded per well in 96 well round bottom tissue culture plates. 50 μL per well of serial 3-fold dilutions of the test compound are added to the cells in triplicates. Untreated cells are used as control. The compound is incubated together with the cells for 90 min at 37° C., 5% CO2, followed by centrifugation of the tissue culture plates at 1300 rpm (Beckman GPR centrifuge) and removal of the supernatants by careful aspiration taking care not to remove any of the pelleted cells. The cell pellets are lysed by addition of 150 μL lysis buffer (50 mM Tris/HCl, pH 7.4, 150 mM sodium chloride, 5 mM EDTA, 1 mM EGTA, 1% NP-40, 2 mM sodium ortho-vanadate, 1 mM PMSF, 50 μg/mL aprotinin and 80 μg/mL leupeptin) and either used immediately for the ELISA or stored frozen in the plates at −20° C. until usage.
Black ELISA plates (Packard HTRF-96 black plates) are precoated over night at 4° C. with 50 ng/well of the rabbit polyclonal anti-abl-SH3 domain Ab 06-466 from Upstate in 50 μL PBS. After washing 3 times with 200 μL/well PBS containing 0.05% Tween20 (PBST) and 0.5% TopBlock (Juro), residual protein binding sites are blocked with 200 μL/well PBST, 3% TopBlock for 4 h at room temperature followed by incubation with 50 μL lysates of untreated or compound-treated cells (20 μg total protein per well) for 3-4 h at 4° C. After 3 washings, 50 μL/well anti-phosphotyrosine Ab PY20(AP) labeled with alkaline phosphatase (Zymed) diluted to 0.2 μg/mL in blocking buffer is added and incubated over night (4° C.). For all incubation steps the plates are covered with plate sealers (Costar). Finally, the plates are washed another three times with washing buffer and once with deionized water before addition of 90 μL/well of the AP-substrate CDPStar RTU with Emerald II. The plates, now sealed with Packard TopSeal™-A plate sealers, are incubated for 45 min at room temperature in the dark and luminescence is quantified by measuring counts per second (CPS) with a Packard Top Count Microplate Scintillation Counter (Top Count). The difference between the ELISA-readout (CPS) obtained for with the lysates of the untreated 32D-Bcr/Abl cells and the readout for the assay-background (all components, but without cell lysate) is calculated and taken as 100% reflecting the constitutively phosphorylated Bcr-Abl protein present in these cells. The activity of the compound on the Bcr-Abl kinase activity is expressed as percent reduction of the Bcr-Abl phosphorylation. The values for the IC50 and IC90 are determined from the dose response curves by graphical extrapolation.

c-Abl = target: T2, c-Abl (Homo sapiens, UniProt P00519); assay: Test for activity against c-Abl protein tyrosine kinase (filter binding assay); type: biochemical
T2 construct: The His-tagged kinase domain of c-Abl is cloned and expressed in the baculovirus/Sf9 system; His; made in house; host or cells: baculovirus/Sf9
T2 sequence (P00519 242-493 limits assumed): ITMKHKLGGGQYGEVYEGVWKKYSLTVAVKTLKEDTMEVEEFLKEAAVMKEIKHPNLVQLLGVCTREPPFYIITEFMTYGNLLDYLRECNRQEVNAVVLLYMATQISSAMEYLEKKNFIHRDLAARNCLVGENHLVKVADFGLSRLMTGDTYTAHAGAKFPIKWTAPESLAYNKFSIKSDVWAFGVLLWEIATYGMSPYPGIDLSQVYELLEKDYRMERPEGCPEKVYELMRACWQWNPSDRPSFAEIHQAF
Method: Test for activity against c-Abl protein tyrosine kinase. The test is conducted as a filter binding assay as follows: The His-tagged kinase domain of c-Abl is cloned and expressed in the baculovirus/Sf9 system as described by Bhat et al., J. Biol. Chem. 272, 16170-5 (1997). A protein of 37 kD (c-Abl kinase) is purified by a two-step procedure over a cobalt metal chelate column followed by an anion exchange column with a yield of 1-2 mg/L of Sf9 cells. The purity of the c-Abl kinase is >90% as judged by SDS-PAGE after Coomassie blue staining. The assay contains: c-Abl kinase (50 ng), 20 mM Tris.HCl, pH 7.5, 10 mM MgCl2, 10 μM Na3VO4, 1 mM DTT and 0.06 μCi/assay [γ^33 P]-ATP (5 μM ATP) using 30 μg/mL poly-Ala,Glu,Lys,Tyr-6:2:5:1 (Poly-AEKY, Sigma P1152) in the presence of 1% DMSO, total volume of 30 μL. Reactions are terminated by adding 10 μL of 250 mM EDTA, and 30 μL of the reaction mixture is transferred onto Immobilon-PVDF membrane (Millipore, Bedford, Mass., USA) previously soaked for 5 min with methanol, rinsed with water, then soaked for 5 min with 0.5% H3PO4 and mounted on vacuum manifold with disconnected vacuum source. After spotting all samples, vacuum is connected and each well rinsed with 200 μL 0.5% H3PO4. Membranes are removed and washed on a shaker with 0.5% H3PO4 (4 times) and once with ethanol. Membranes are counted after drying at ambient temperature, mounting in Packard TopCount 96-well frame, and addition of 10 μL/well of Microscint™ (Packard).

[1] = target: c-erbB2 tyrosine kinase (HER-2) (Homo sapiens, UniProt P04626); assay: Inhibition of c-erbB2 tyrosine kinase (HER-2); type: biochemical; set-up: dose or concentration left out as unconfirmed
Source text: The inhibition of c-erbB2 tyrosine kinase (HER-2) can be measured, for example, in the same way as the inhibition of EGF-R protein kinase, using known procedures.

Molecule	IC50 (Bcr-Abl) [nM]	IC50 (c-Abl) [nM]	HER-2/%-inh. [%] [1] [%]
CCCNc1ncnc2[nH]c(-c3ccc(CN4CCN(C)CC4)cc3)cc12 [Example 18, {6-[4-(4-Methyl-piperazin-1-ylmethyl)-phenyl]-7H-pyrrolo[2,3-d]pyrimidin-4-yl}-propyl-amine]	939	6	94
CN(C)c1ncnc2[nH]c(-c3ccc(CNCCCO)cc3)cc12 [Example 28, 3-[4-(4-Dimethylamino-7H-pyrrolo[2,3-d]pyrimidin-6-yl)-benzylamino]-propan-1-ol]	409		85
CN(C)c1ncnc2[nH]c(-c3ccc(Cn4cnnn4)cc3)cc12 [Example 27, Dimethyl-[6-(4-tetrazol-1-ylmethyl-phenyl)-7H-pyrrolo[2,3-d]pyrimidin-4-yl]-amine]	903	10	75
CN(C)c1ncnc2[nH]c(-c3ccc(Cn4ccnc4)cc3)cc12 [Example 24, [6-(4-Imidazol-1-ylmethyl-phenyl)-7H-pyrrolo[2,3-d]pyrimidin-4-yl]-dimethylamine]	790	11	93
CN1CCN(C(=O)c2ccc(-c3cc4c(NCCCO)ncnc4[nH]3)cc2)CC1 [Example 15, {4-[4-(3-Hydroxy-propylamino)-7H-pyrrolo[2,3-d]pyrimidin-6-yl]-phenyl}-(4-methyl-piperazin-1-yl)-methanone]		14	88
CNc1ncnc2[nH]c(-c3ccc(CN4CCN(C)CC4)cc3)cc12 [Example 16, Methyl-{6-[4-(4-methyl-piperazin-1-ylmethyl)-phenyl]-7H-pyrrolo[2,3-d]pyrimidin-4-yl}-amine]	50.8	11	93
CCCNc1ncnc2[nH]c(-c3ccc(C(=O)N4CCN(C)CC4)cc3)cc12 [Example 17, (4-Methyl-piperazin-1-yl)-[4-(4-propylamino-7H-pyrrolo[2,3-d]pyrimidin-6-yl)-phenyl]-methanone]	1630	5	87
CN(C)c1ncnc2[nH]c(-c3ccc(C(=O)N4CCOCC4)cc3)cc12 [Example 6, [4-(4-Dimethylamino-7H-pyrrolo[2,3-d]pyrimidin-6-yl)-phenyl]-morpholin-4-yl-methanone]	935	2.6	80
CCC(O)(CC)c1ccc(-c2cc3c(NCCCn4cccc4)ncnc3[nH]2)cc1 [Example 33, 3-{4-[4-(3-Pyrrol-1-yl-propylamino)-7H-pyrrolo[2,3-d]pyrimidin-6-yl]-phenyl}-pentan-3-ol]	2430	130	88
CN(C)c1ncnc2[nH]c(-c3ccc(Cc4ccc[nH]4)cc3)cc12 [Example 25, Dimethyl-{6-[4-(1H-pyrrol-2-ylmethyl)-phenyl]-7H-pyrrolo[2,3-d]pyrimidin-4-yl}-amine]	≥ 10000	9	39
CN(C)c1ncnc2[nH]c(-c3ccc(C(=O)NCCCN4CCOCC4)cc3)cc12 [Example 7, 4-(4-Dimethylamino-7H-pyrrolo[2,3-d]pyrimidin-6-yl)-N-(3-morpholin-4-yl-propyl)-benzamide]	917	25	71
CNc1ncnc2[nH]c(-c3ccc(C(C)(C)O)cc3)cc12 [Example 35, 2-[4-(4-Methylamino-7H-pyrrolo[2,3-d]pyrimidin-6-yl)-phenyl]-propan-2-ol]		10	
CNc1ncnc2[nH]c(-c3ccc(C(=O)N4CCN(C)CC4)cc3)cc12 [Example 12, [4-(4-Methylamino-7H-pyrrolo[2,3-d]pyrimidin-6-yl)-phenyl]-(4-methyl-piperazin-1-yl)-methanone]		4	85
CN1CCN(Cc2ccc(-c3cc4c(N(C)C)ncnc4[nH]3)cc2)CC1 [Example 4, Dimethyl-{6-[4-(4-methyl-piperazin-1-ylmethyl)-phenyl]-7H-pyrrolo[2,3-d]pyrimidin-4-yl}-amine]	729	32	87
CN1CCN(C(=O)c2ccc(-c3cc4c(N(C)C)ncnc4[nH]3)cc2)CC1 [Example 3, [4-(4-Dimethylamino-7H-pyrrolo[2,3-d]pyrimidin-6-yl)-phenyl]-(4-methyl-piperazin-1-yl)-methanone]	797	19	78
CCCN(C)c1ncnc2[nH]c(-c3ccc(CN4CCN(C)CC4)cc3)cc12 [Example 19, Methyl-{6-[4-(4-methyl-piperazin-1-ylmethyl)-phenyl]-7H-pyrrolo[2,3-d]pyrimidin-4-yl}-propyl-amine]	2070	11	89
CCN(CC)CCCNC(=O)c1ccc(-c2cc3c(N(C)C)ncnc3[nH]2)cc1 [Example 5, N-(3-Diethylamino-propyl)-4-(4-dimethylamino-7H-pyrrolo[2,3-d]pyrimidin-6-yl)-benzamide]		21	78
COCCN(C)Cc1ccc(-c2cc3c(N(C)C)ncnc3[nH]2)cc1 [Example 29, [6-(4-{[(2-Methoxy-ethyl)-methyl-amino]-methyl}-phenyl)-7H-pyrrolo[2,3-d]pyrimidin-4-yl]-dimethyl-amine]	274		79
[4-(4-Methylamino-7H-pyrrolo[2,3-d]pyrimidin-6-yl)-phenyl]-morpholin-4-yl-methanone [Example 2]	292	35	65
